Laboratory results published in patent US20240294541A1, “COMPOUNDS CONSTITUTING C20-MODIFIED SALINOMYCIN DERIVATIVES, A METHOD FOR OBTAINING THE SAME, A COMPOSITION CONTAINING THE SAME AND A USE OF SAID COMPOUNDS” (FILECLO SPOLKA Z OGRANICZONA ODPOWIEDZIALNOSCIA, priority 2021, published 2024).
Counter-ions that a name gives are not always drawn. Like-named read-outs stand apart in the source and are kept apart here.

Key:
Assay type in all cases: cell-based
[1] = tested on: NCI-H23 (human lung cancer); assay: In vitro cytotoxicity, SRB assay, NCI-H23; settings: for IC50: Homo sapiens, NCI-H23, 72 h with compound, SRB, n/a = non-active compound, read-out: NCI-H23 IC50; for NCI-H23 SI: selectivity coefficient vs normal BALB/3T3 cells
[2] = tested on: PFSK-1 (malignant primitive neuroectodermal tumour); assay: In vitro cytotoxicity, SRB assay, PFSK-1; settings: for IC50: Homo sapiens, PFSK-1, 72 h with compound, SRB, n/a = non-active compound, read-out: PFSK-1 IC50; for PFSK-1 SI: selectivity coefficient vs normal BALB/3T3 cells
[3] = tested on: A2780 (human ovarian cancer); assay: In vitro cytotoxicity, SRB assay, A2780; settings: for IC50: Homo sapiens, A2780, 72 h with compound, SRB, n/a = non-active compound, read-out: A2780 IC50; for A2780 SI: selectivity coefficient vs normal BALB/3T3 cells
[4] = tested on: A2780Cis (cisplatin-resistant human ovarian cancer); assay: In vitro cytotoxicity, SRB assay, A2780Cis; settings: for IC50: Homo sapiens, A2780cis
A375 (human melanoma) = assay: In vitro cytotoxicity, SRB assay, A375; settings: for IC50: Homo sapiens, A-375, 72 h with compound, SRB, n/a = non-active compound, read-out: A375 IC50; for A375 SI: selectivity coefficient vs normal BALB/3T3 cells
[5] = tested on: PLC/PRF/5 (human liver cancer); assay: cells; settings: for IC50: Homo sapiens, PLC-PRF-5, 72 h with compound, SRB, n/a = non-active compound, read-out: PLC/PRF/5 IC50; for PLC/PRF/5 SI: selectivity coefficient vs normal BALB/3T3 cells
[6] = tested on: SNU-16 (human gastric cancer); assay: cells; settings: for IC50: Homo sapiens, SNU-16, 72 h with compound, MTT, n/a = non-active compound, read-out: SNU-16 IC50; for SNU-16 SI: selectivity coefficient vs normal BALB/3T3 cells
[7] = tested on: KG-1 (human acute myeloid leukaemia); assay: In vitro cytotoxicity, MTT assay, KG-1; settings: for IC50: Homo sapiens, 72 h with compound, MTT, n/a = non-active compound; for KG-1 SI: selectivity coefficient vs normal BALB/3T3 cells
[8] = tested on: MIA PaCa-2 (human pancreatic cancer); assay: cells; settings: for IC50: Homo sapiens, MIA PaCa-2, 72 h with compound, SRB, n/a = non-active compound, read-out: MIA PaCa-2 IC50; for MIA PaCa-2 SI: selectivity coefficient vs normal BALB/3T3 cells
[9] = tested on: BALB/3T3 (normal mouse fibroblasts); assay: In vitro cytotoxicity, SRB assay, normal BALB/3T3 fibroblasts
[10] = tested on: MV-4-11 (human biphenotypic leukaemia); assay: In vitro cytotoxicity, MTT assay, MV-4-11; settings: for IC50: Homo sapiens, MV4-11, read-out: IC50 (nM) MV4-11
[11] = 72 h, read-out: A2780Cis IC50 (nM)
[12] = Mus musculus, BALB/3T3, normal cells, 72 h with compound, SRB, n/a = non-active compound, read-out: BALB/3T3 IC50
[13] = Table 5, BALB/3T3 normal mouse fibroblasts, read-out: IC50 (nM) BALB3T3 normal cells

SMILES | IC50 [2] | IC50 [3] | A2780Cis RI [4] | IC50 [4, 11] | IC50 [6] | IC50 [7] | SI A2780Cis [4] | IC50 ([4]; read-out: IC50 (nM) A2780Cis) | IC50 [9, 13] | SI MV4-11 [10] | IC50 [10] | also measured
CCNC(=S)N[C@@H]1C=C[C@]2(O[C@H]([C@@H](CC)C(=O)[C@@H](C)[C@@H](O)[C@H](C)[C@@H]3O[C@@H]([C@@H](CC)C(=O)O)CC[C@@H]3C)[C@@H](C)C[C@H]2C)O[C@@]12CC[C@@](C)([C@H]1CC[C@](O)(CC)[C@H](C)O1)O2 [FLC-00339-1 Na] | 16.1 nM | 2.27 nM | 0.9 | 2.04 nM | 17.5 nM | 11.1 nM |  |  |  |  |  | IC50 [1]: 4.38 nM; NCI-H23 SI [1]: 12.4; PFSK-1 SI [2]: 3.4; A2780 SI [3]: 24.0; A2780Cis SI [4]: 26.7; IC50 (A375 (human melanoma)): 26.9 nM; A375 SI (A375 (human melanoma)): 2.0; IC50 [5]: 10.8 nM; PLC/PRF/5 SI [5]: 5.0; SNU-16 SI [6]: 3.1; KG-1 SI [7]: 4.9; IC50 [8]: 17.1 nM; MIA PaCa-2 SI [8]: 3.2; IC50 [9, 12]: 54.5 nM
CC[C@@H](C(=O)[C@@H](C)[C@@H](O)[C@H](C)[C@@H]1O[C@@H]([C@@H](CC)C(=O)O)CC[C@@H]1C)[C@H]1O[C@]2(C=C[C@@H](NC(=O)NS(=O)(=O)c3ccc(C)cc3)[C@]3(CC[C@@](C)([C@H]4CC[C@](O)(CC)[C@H](C)O4)O3)O2)[C@H](C)C[C@@H]1C [FLC-00364-1] | 5600 nM | 2600 nM | 0.4 | 1130 nM | 5380 nM | 3700 nM |  |  |  |  |  | IC50 [1]: 4790 nM; IC50 [5]: 4480 nM
CC[C@@H](C(=O)[C@@H](C)[C@@H](O)[C@H](C)[C@@H]1O[C@@H]([C@@H](CC)C(=O)O)CC[C@@H]1C)[C@H]1O[C@]2(C=C[C@@H](NC(=O)NS(=O)(=O)c3ccccc3)[C@]3(CC[C@@](C)([C@H]4CC[C@](O)(CC)[C@H](C)O4)O3)O2)[C@H](C)C[C@@H]1C [FLC-00365-1] | 6200 nM | 3480 nM | 0.9 | 3020 nM | 5830 nM | 8000 nM |  |  |  |  |  | 
CC[C@@H](C(=O)[C@@H](C)[C@@H](O)[C@H](C)[C@@H]1O[C@@H]([C@@H](CC)C(=O)O)CC[C@@H]1C)[C@H]1O[C@]2(C=C[C@@H](NC(=S)Nc3ccc(F)cc3)[C@]3(CC[C@@](C)([C@H]4CC[C@](O)(CC)[C@H](C)O4)O3)O2)[C@H](C)C[C@@H]1C [FLC-00340-1 Na] | 9.37 nM | 2.41 nM | 0.8 | 1.84 nM | 16.7 nM | 24.4 nM |  |  |  |  |  | IC50 [1]: 8.64 nM; NCI-H23 SI [1]: 6.7; PFSK-1 SI [2]: 6.2; A2780 SI [3]: 24.0; A2780Cis SI [4]: 31.4; IC50 (A375 (human melanoma)): 31.2 nM; A375 SI (A375 (human melanoma)): 1.8; IC50 [5]: 19.1 nM; PLC/PRF/5 SI [5]: 3.0; SNU-16 SI [6]: 3.5; KG-1 SI [7]: 2.4; IC50 [8]: 33.9 nM; MIA PaCa-2 SI [8]: 1.7; IC50 [9, 12]: 57.7 nM
CC[C@@H](C(=O)[C@@H](C)[C@@H](O)[C@H](C)[C@@H]1O[C@@H]([C@@H](CC)C(=O)O)CC[C@@H]1C)[C@H]1O[C@]2(C=C[C@@H](NC(=O)CBr)[C@]3(CC[C@@](C)([C@H]4CC[C@](O)(CC)[C@H](C)O4)O3)O2)[C@H](C)C[C@@H]1C [FLC-00501-1•Na, C20-aminosalinomycin 2-bromoacetamide] |  |  |  |  |  |  | 1.3 | 2230 nM | 2830 nM | 1.6 | 1740 nM | 
CCOC(=O)C(=O)N[C@@H]1C=C[C@]2(O[C@H]([C@@H](CC)C(=O)[C@@H](C)[C@@H](O)[C@H](C)[C@@H]3O[C@@H]([C@@H](CC)C(=O)O)CC[C@@H]3C)[C@@H](C)C[C@H]2C)O[C@@]12CC[C@@](C)([C@H]1CC[C@](O)(CC)[C@H](C)O1)O2 [FLC-00373-1, C20-aminosalinomycin oxalate derivative] |  | 6690 nM |  |  |  | 9060 nM |  |  |  |  |  | 
CC[C@@H](C(=O)[C@@H](C)[C@@H](O)[C@H](C)[C@@H]1O[C@@H]([C@@H](CC)C(=O)O)CC[C@@H]1C)[C@H]1O[C@]2(C=C[C@@H](NS(=O)(=O)c3cccs3)[C@]3(CC[C@@](C)([C@H]4CC[C@](O)(CC)[C@H](C)O4)O3)O2)[C@H](C)C[C@@H]1C [FLC-00505-1•Na] |  |  |  |  |  |  | 15.2 | 7.61 nM | 116 nM | 8.3 | 14 nM | 
CC[C@@H](C(=O)[C@@H](C)[C@@H](O)[C@H](C)[C@@H]1O[C@@H]([C@@H](CC)C(=O)O)CC[C@@H]1C)[C@H]1O[C@]2(C=C[C@@H](NC(=O)CC(C)(C)C)[C@]3(CC[C@@](C)([C@H]4CC[C@](O)(CC)[C@H](C)O4)O3)O2)[C@H](C)C[C@@H]1C [FLC-00534-1•Na] |  |  |  |  |  |  | 50.7 | 1.28 nM | 64.9 nM | 42.4 | 1.53 nM | 
CC[C@@H](C(=O)[C@@H](C)[C@@H](O)[C@H](C)[C@@H]1O[C@@H]([C@@H](CC)C(=O)O)CC[C@@H]1C)[C@H]1O[C@]2(C=C[C@@H](NC(=O)NCCCN3CCS(=O)(=O)CC3)[C@]3(CC[C@@](C)([C@H]4CC[C@](O)(CC)[C@H](C)O4)O3)O2)[C@H](C)C[C@@H]1C [FLC-00546-1•Na] |  |  |  |  |  |  | 19.5 | 112 nM | 2180 nM | 8.5 | 258 nM | 
CC[C@@H](C(=O)[C@@H](C)[C@@H](O)[C@H](C)[C@@H]1O[C@@H]([C@@H](CC)C(=O)O)CC[C@@H]1C)[C@H]1O[C@]2(C=C[C@@H](NC(=O)NCCc3cccnc3)[C@]3(CC[C@@](C)([C@H]4CC[C@](O)(CC)[C@H](C)O4)O3)O2)[C@H](C)C[C@@H]1C [FLC-00567-1•Na] |  |  |  |  |  |  | 54.2 | 15.7 nM | 848 nM | 25.0 | 34 nM | 
CC[C@@H](C(=O)[C@@H](C)[C@@H](O)[C@H](C)[C@@H]1O[C@@H]([C@@H](CC)C(=O)O)CC[C@@H]1C)[C@H]1O[C@]2(C=C[C@@H](NC(=O)NC(=O)C(Cl)(Cl)Cl)[C@]3(CC[C@@](C)([C@H]4CC[C@](O)(CC)[C@H](C)O4)O3)O2)[C@H](C)C[C@@H]1C [FLC-00367-1] | 689 nM | 322 nM | 0.8 | 266 nM | 368 nM | 666 nM |  |  |  |  |  | IC50 [1]: 682 nM; NCI-H23 SI [1]: 7.4; PFSK-1 SI [2]: 7.4; A2780 SI [3]: 15.7; A2780Cis SI [4]: 19.1; IC50 (A375 (human melanoma)): 5920 nM; A375 SI (A375 (human melanoma)): 0.9; IC50 [5]: 940 nM; PLC/PRF/5 SI [5]: 5.4; SNU-16 SI [6]: 13.8; KG-1 SI [7]: 7.6; IC50 [8]: 3220 nM; MIA PaCa-2 SI [8]: 1.6; IC50 [9, 12]: 5080 nM
CC[C@@H](C(=O)[C@@H](C)[C@@H](O)[C@H](C)[C@@H]1O[C@@H]([C@@H](CC)C(=O)O)CC[C@@H]1C)[C@H]1O[C@]2(C=C[C@@H](NC(=O)C(=O)NCc3ccccn3)[C@]3(CC[C@@](C)([C@H]4CC[C@](O)(CC)[C@H](C)O4)O3)O2)[C@H](C)C[C@@H]1C [FLC-00478-1•Na] |  |  |  |  |  |  | 25.9 | 63.6 nM | 1650 nM | 9.2 | 180 nM | 
CC[C@@H](C(=O)[C@@H](C)[C@@H](O)[C@H](C)[C@@H]1O[C@@H]([C@@H](CC)C(=O)O)CC[C@@H]1C)[C@H]1O[C@]2(C=C[C@@H](NC(=O)OCCOCCOCCOCCOC)[C@]3(CC[C@@](C)([C@H]4CC[C@](O)(CC)[C@H](C)O4)O3)O2)[C@H](C)C[C@@H]1C [FLC-00481-1•Na] |  |  |  |  |  |  | 17.4 | 220 nM | 3830 nM | 12.0 | 320 nM | 
CC[C@@H](C(=O)[C@@H](C)[C@@H](O)[C@H](C)[C@@H]1O[C@@H]([C@@H](CC)C(=O)O)CC[C@@H]1C)[C@H]1O[C@]2(C=C[C@@H](NC(=O)c3cccc(C(F)(F)F)c3)[C@]3(CC[C@@](C)([C@H]4CC[C@](O)(CC)[C@H](C)O4)O3)O2)[C@H](C)C[C@@H]1C [FLC-00579-1•Na] |  |  |  |  |  |  | 22.3 | 71.4 nM | 1590 nM | 8.5 | 188 nM | 
CC[C@@H](C(=O)[C@@H](C)[C@@H](O)[C@H](C)[C@@H]1O[C@@H]([C@@H](CC)C(=O)O)CC[C@@H]1C)[C@H]1O[C@]2(C=C[C@@H](NC(=O)N(C)C)[C@]3(CC[C@@](C)([C@H]4CC[C@](O)(CC)[C@H](C)O4)O3)O2)[C@H](C)C[C@@H]1C [FLC-00538-1•Na] |  |  |  |  |  |  | 22.4 | 42.2 nM | 943 nM | 9.2 | 103 nM | 
